Structures are written as SMILES. Values after ≈ are worked out from the molar mass of the structure shown. Read-outs that look alike come from different tables or passages of the source. Marks after values point to notes of the source that are not given here.

For series [1], the system named is IPC-81 rat AML cells. Briefly: Anti-AML activity, WST-1 viability (Example 72). The format is cell-based. An outline of the steps:
(§1)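 Rat IPC-81 cells in DMEM with 10% horse serum and Molm13 cells in RPMI with 10% FBS, seeded at 150 000 cells/ml with compound dilution series. After 22 h exposure, WST-1 added for a further 2 h; absorbance read at 450 nm (620 nm reference) as viability.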
A general note: Tetrazolium dyes change colour on reduction, which living cells bring about.

For series [2], the system named is Molm13 cells. Briefly: Anti-AML activity, WST-1 viability (Example 72). It is filed as cell-based. The note with it: Homo sapiens, Molm 13 cells, WST-1. An outline of the steps: as §1
Series [3] concerns human acute myeloid leukemia cell line MOLM-13. Briefly: Cytotoxicity, WST-1 and nuclear morphology (Example 73). The format is cell-based. Conditions: Homo sapiens. An outline of the steps: (§2)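 MOLM-13 (RPMI/FBS), NRK and H9c2 (DMEM/10% FBS) cells under 2% or 20% O2 at 37° C were exposed to analogues for 24 h (≤1% DMSO). Viability was read by WST-1, and cell death by Hoechst 33342 nuclear morphology; EC50 came from four-parameter regression.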

Series [4] relates to normal rat kidney epithelial (NRK) cells. Described as above. The format is cell-based. Conditions: Rattus norvegicus. An outline of the steps:
as §2

Series [5] concerns rat cardiomyoblast (H9c2) cells. The series is described as above. The format is cell-based. Conditions: Rattus norvegicus; H9c2, 19% O2, 24 hours of incubation; read-out: EC50 (μM) H9c2 19% O2. An outline of the steps:
as §2

The test system of series [6] is hepG2. Briefly: Cytotoxicity (Example 73, Table 2). It is filed as cell-based. The note with it: Homo sapiens; hepG2, 24 hours of incubation; read-out: EC50 (μM) hepG2.
A short description of series [7]: Parallel artificial membrane permeability assay (PAMPA). The note with it: PAMPA, 50 μM in PBS, room temperature, five hours. (PAMPA measures passive passage across an artificial lipid membrane.)
The conditions of series [8]: all solvents; background statement; cited from earlier work.
Series [9] deals with A.baumannii/OXA-23. Briefly: Microbroth dilution MIC. It is filed as cell-based. The note with it: Acinetobacter baumannii; S7 A.baumannii/OXA-23; substance alone. As to the method:
(§3) Day 1: • Plate bacterial strain(s) on appropriate media: • Gram-negative bacteria with ESBLs or carbapenemases: green agar plates with 100 mg/L ampicillin • Gram-negative bacteria without β-lactamases: green agar plates • Gram-positive bacteria (Staphylococci and Enterococci): blood agar plates • Incubate o.n. at 37° C.
(§4) Prepare the Bacterial Inoculum: • Prepare a 0.5 McFarland suspension of bacteria in 0.85% NaCl. (Should be used within 15 min of preparation). • Dilute the 0.5 McFarland suspension 1:100 into MH broth.
(§5) Check the inoculum by diluting the prepared bacterial suspension 1:100 (10 μl bacterial suspension+990 μl 0.85% NaCl). Plate 10 μl of the dilution on MH agar plates (×2). Incubate o.n. at 37° C., count the colonies and calculate the final CFU/ml inoculum in the plate by multiplying the average number of colonies with 10000 and divide by 2. The final inoculum should be between 3-7×10^5 CFU/ml. • Add 50 μl of the prepared bacterial suspension to each well in the microtiter plate except negative growth control.
(§6) Preparation of Compounds/Antibiotics • Calculate the desired concentration-range and volume of the compounds/antibiotics in the assay. For antibiotics this will depend on the MIC to meropenem of the bacterial strains to be tested. Dilute the stock solution in MH broth. Make subsequent 2-fold dilutions in MH broth of the desired concentrations if a concentration range is to be tested (remember the extra dilution factor in the assay plate). Always include extra volume for pipetting. Take into consideration stock solutions that are made in buffers that have an effect on bacterial growth (e.g. DMSO).
(§7) This experimental design was used for the results in Tables 4 and 5 below. In Table 4, inhibitor concentration dependency on the MIC of meropenem was studied.
For orientation: Broth dilution looks for growth in wells or tubes with falling amounts of substance.

Series [10] concerns E. coli/OXA-48. Briefly: Microbroth dilution MIC. The format is cell-based. Conditions: Escherichia coli, read-out: MIC alone. On the procedure: as §3, §4, §5, §6, §7
In series [11] the test system is K. pneumoniae/KPC-2. Briefly: Microbroth dilution MIC. The format is cell-based. Conditions: Klebsiella pneumoniae; S6 K. pneumoniae/KPC-2; substance alone. As to the method:
as §3, §4, §5, §6, §7

Series [12] concerns K. pneumoniae/NDM-1. Briefly: Microbroth dilution MIC. Conditions: Klebsiella pneumoniae; S4 K. pneumoniae/NDM-1; substance alone. The format is cell-based. As to the method:
as §3, §4, §5, §6, §7

In series [13] the test system is P. aeruginosa/VIM-2. Briefly: Microbroth dilution MIC. The format is cell-based. Conditions: Pseudomonas aeruginosa, read-out: MIC alone. On the procedure:
as §3, §4, §5, §6, §7

The test system of series [14] is methicillin-resistant S. aureus MRSA A4-37. Briefly: Microbroth dilution MIC. It is filed as cell-based. Conditions: compound alone. As to the method:
as §3, §4, §5, §6, §7

For series [15], the system named is vancomycin-resistant E. faecium vanA A1-22. Briefly: Microbroth dilution MIC. The format is cell-based. Conditions: compound alone. On the procedure: as §3, §4, §5, §6, §7
The subject of series [16] is K. pneumoniae (17A2). Briefly: Microbroth dilution MIC. The format is cell-based. The note with it: Klebsiella pneumoniae; S2 K. pneumoniae (17A2), lacking metallo-β-lactamase; substance alone. On the procedure:
as §3, §4, §5, §6, §7

Series [17] concerns P. aeruginosa (16H5). Briefly: Microbroth dilution MIC. It is filed as cell-based. The note with it: Pseudomonas aeruginosa; S1 P. aeruginosa (16H5), lacking metallo-β-lactamase; substance alone. As to the method: as §3, §4, §5, §6, §7
The mark [18] stands for this setting: 2% O2, 24 h of incubation, read-out: Molm 13 IC50 2% O2.
Setting [19] is: 20% O2, 24 h of incubation, read-out: Molm 13 IC50 20% O2.
Setting [20] is: MOLM-13, 2% O2, 24 hours of incubation, read-out: EC50 (μM) MOLM-13 2% O2.
Setting [21] is: MOLM-13, 19% O2, 24 hours of incubation, read-out: EC50 (μM) MOLM-13 19% O2.
The mark [22] stands for this setting: 2% O2, 24 hours of incubation, read-out: EC50 (μM) NRK 2% O2.
Setting [23] is: 19% O2, 24 hours of incubation, read-out: EC50 (μM) NRK 19% O2.

The term IC50 denotes the concentration at which inhibition is half-maximal. As a reminder, the EC50 is the midpoint of the concentration-response curve. In the case of `[O-][n+]1c2cccc(O)c2[n+]([O-])c2cccc(O)c21` [Example 1c, 1,6-dihydroxyphenazine 5,10-dioxide, reference compound], the half-inhibitory concentration (IC50) in [1] (IPC81, 24 h, read-out: IPC-81 IC50 2% O2) came out at 510 nM; in [1] (IPC81, 24 h, read-out: IPC-81 IC50 20% O2), 1300 nM; in series [2] (setting [18]), 270 nM; in series [2] (setting [19]) it was 300 nM. In addition, the EC50 in series [3] (setting [20]) is 0.79 ± 0.1 µM; in [3] (setting [21]) it was 2 ± 0.07 µM; in series [4] (setting [22]), over 50 µM; in series [4] (setting [23]) it was over 50 µM; in [5], over 50 µM; in series [6], over 250 µM. Also, the LogPeff in [7] is −5.46*. In addition, the solubility result in series [8] is listed as “practically insoluble in all solvents”.

Consider `COc1cccc2c1[n+]([O-])c1cccc(OC(C)=O)c1[n+]2[O-]` [Example 5e, 1-Acetoxy-6-methoxyphenazine 5,10-dioxide], for which the IC50 in [1] (IPC81, IPC-81 cells, 2% O2, 24 h of incubation, WST-1, read-out: IPC-81 IC50 2% O2) is 1700 nM; in series [1] (IPC81, IPC-81 cells, 20% O2, 24 h of incubation, WST-1, read-out: IPC-81 IC50 20% O2), 1800 nM; in [2] (setting [18]), 1450 nM; in series [2] (setting [19]) it was 1500 nM.

As usually defined, the MIC is the lowest concentration that inhibits growth of the organism. As to `CCOC(=O)COc1cccc2c1[n+]([O-])c1ccccc1[n+]2[O-]` [Example 6a, 1-(2-ethoxy-2-oxoethoxy)phenazine 5,10-dioxide], the IC50 in series [2] (setting [19]) came out at 110 nM. The EC50 in series [3] (setting [20]) was determined as 1.7 ± 0.29 µM; in [3] (setting [21]) it was 1.5 ± 0.14 µM; in [4] (setting [22]), 25 ± 0.2 µM; in [4] (setting [23]), 26 ± 0.8 µM; in series [5] it was 20 ± 2.9 µM; in series [6], 75 µM. For the same molecule, the MIC was found to be 5 µg/mL (≈ 15.9 µM) in series [9]; 2.5 µg/mL (≈ 7.95 µM) in series [10]; 9.7 µg/mL (≈ 30.9 µM) in [11]; 19.6 µg/mL (≈ 62.4 µM) in series [12]; 39.3 µg/mL (≈ 125 µM) in series [13]. The MIC A4-37 S. aureus MRSA in [14] was under 0.5 µg/mL. Moreover, in series [15], the MIC A1-22 E. faecium vanA came out at 4 µg/mL (≈ 12.7 µM).

Consider `C[C@@H](O)[C@H]1C(=O)N2C(C(=O)O)=C(S[C@@H]3CN[C@H](C(=O)N(C)C)C3)[C@H](C)[C@H]12` [MEM, meropenem, reference compound], for which the minimal inhibitory concentration (MIC) in series [9] is over 64 µg/mL; in series [10], 1 µg/mL (≈ 2.61 µM); in [16] it was 8 µg/mL (≈ 20.9 µM); in [11], over 64 µg/mL; in series [12] it was 64 µg/mL (≈ 167 µM); in series [17], over 64 µg/mL. Also, the MIC in series [13] (S3 P. aeruginosa/VIM-2, substance alone) came to 32 µg/mL (≈ 83.4 µM).

The record behind these values is patent publication US11958842B2, “Substituted phenazines and methods of treating cancer and bacterial diseases” (Adjutec Pharma AS, priority 2016, dated 2024).
